Results from US9198923B2, “Phosphate management with small molecules” (OPKO IRELAND GLOBAL HOLDINGS, LTD., priority 2009, dated 2015).

How the values were obtained:
[1] = system: phosphate uptake in Caco-2 human intestinal epithelial cells; test: Dosage effect on phosphate uptake inhibition in Caco-2 cells; type: cell-based; conditions: concentrations from 1 to 100 μM, FIG. 2
Description: Caco-2 cells were cultured in DMEM medium containing 20% Fetal Bovine Serum. Medium from the sub-confluent monolayer of Caco-2 cells was removed. The resulting cells were washed with either a sodium free buffer (137 mM choline chloride, 5.4 mM KCl, 2.8 mM CaCl2, 1.2 mM MgSO4, and 14 mM Tris-HCl at pH 7.4), or with a buffer that contained sodium (137 mM sodium chloride, 5.4 mM KCl, 2.8 mM CaCl2, 1.2 mM MgSO4, and 14 mM Tris-HCl at pH 7.4). After the wash, sodium or sodium free buffer comprising 1 μM of radiolabeled phosphate (K2H^32PO4,1 μCi/mL) and 100 μM of a small molecule having a phosphate group that was selected from the group containing Compounds 001-029 was added to the cells and they were incubated for 20 min at 37° C. Phosphate uptake was terminated by removing the uptake media and washing the cells with an ice-cold solution of 14 mM Tris-HCl, pH 7.4 that contained 137 mM of either choline chloride or sodium chloride. The monolayers of the cells were solubilized by the addition of a 1% solution of Triton X-100 to extract the radiolabeled phosphate. Aliquots of the radiolabeled phosphate were added to scintillation fluid and the radioactivity was determined by liquid scintillation counting. The difference between the assays using the two solutions with or without sodium represents the sodium dependent transport of phosphate.
The procedure of example 1 was repeated using C-002, C-004, C-012, and C-028 at concentrations from 1 to 100 μM. The results were recorded as the percent of phosphate uptake inhibition versus concentration of the small molecule having a phosphate group.

Male Sprague Dawley rats = test: Maximum tolerated dose (MTD) in male Sprague Dawley rats; type: in vivo, rat; conditions: oral, daily, 0.5, 5 and 10 mg per kg for twelve days; for effect on weight gain: FIG. 5
Description: Male Sprague Dawley rats were given C-002, C-004, C-012, C-021, C-022, C-023, and C-028 orally and daily at doses of 0.5, 5 and 10 mg per kg for twelve days. The mortality and animal weight data were recorded.

[2] = system: Caco-2 human epithelial cells; test: Caco-2 cell viability by ALAMAR BLUE stain reduction; type: cell-based; conditions: 100 μM compound, Caco-2 cells; FIG. 3; taken as nontoxic
Description: Staining was performed with ALAMAR BLUE stain in the presence of 100 μM C-002, C-004, C-012, and C-028 cells to exclude compound toxicity in the phosphorus transport assay. Caco-2 cells were plated into a 96-well plate in concentrations which gave about 16,000 cells/well on the day of the test (e.g., 8000 cells/well for a 1 day growth, 4000 cells/well for a 2 day growth, 2000 cell/well for a 3 day growth). On the day of the test, old media was replaced by 80 μL of fresh media per well with either a 100 μM final concentration of the small molecule having a phosphate group in DMSO, or with 1% of DMSO in the control wells. Testing was performed in duplicate. ALAMAR BLUE stain (BioSource International, Inc., Cat#DAL1100) was added at a final concentration of 10% into each well according to manufacturer instructions. The cells were then incubated at 37° C. for another 18 or 24 hours, and the reduction of ALAMAR BLUE stain by vital cells was measured spectrophotometrically at 570 nm and 600 nm. The results were calculated as the percent of reduction using the formula in the manufacturer's manual (TREK Diagnostic Systems, PI-DIAL 1025/1100 Rev 1.0).

[3] = system: Caco-2 human epithelial cells; test: Caco-2 cell viability by trypan blue exclusion; type: cell-based; conditions: 100 μM compound, one hour of incubation, sodium or sodium free buffer; FIG. 4
Description: Trypan blue exclusion was used to determine the effect of C-002, 004, 012, and 028 on cell viability. The cells were plated in the same way as the ALAMAR BLUE stain test (see above). On the day of the test, media was removed, cells were washed with PBS and incubated with 100 μM (final concentration) of C-002, C-004, C-012 and C-028 in either a sodium free buffer (137 mM choline chloride, 5.4 mM KCl, 2.8 mM CaCl2, 1.2 mM MgSO4, and 14 mM Tris-HCl at pH 7.4), or with a buffer that contained sodium (137 mM sodium chloride, 5.4 mM KCl, 2.8 mM CaCl2, 1.2 mM MgSO4, and 14 mM Tris-HCl at pH 7.4). Testing was performed in duplicate. After 1 hour of incubation the cells were detached with trypsin/EDTA, transferred to an Eppendorf tube, and their viability was counted using 0.4% trypan blue stain (Invitrogen, Cat.#15250-061) in a 1:4 dilution with confocal microscopy.

| SMILES | percent inhibition of phosphate uptake versus concentration [1] | mortality (Male Sprague Dawley rats) | effect on weight gain (Male Sprague Dawley rats) | percent difference in ALAMAR BLUE stain reduction after 18 and 24 hours [2] | viability of Caco-2 cells by trypan blue exclusion [3] |
| --- | --- | --- | --- | --- | --- |
| O=P(O)(O)c1c(Cl)c(Cl)nc(Cl)c1Cl [C-002] | increased with the concentration | No death | no significant effect | virtually unchanged | no significant effect |
| C=C(c1ccccc1)P(=O)(O)O [C-004] | increased with the concentration | No death | no significant effect | virtually unchanged | no significant effect |
| Cc1csc(Nc2ccc([N+](=O)[O-])cc2)[n+]1CCC(O)(P(=O)(O)O)P(=O)(O)O [C-012] | increased with the concentration | No death | no significant effect | virtually unchanged | no significant effect |
| O=P(O)(O)c1ccccc1OCCCl [C-021] | – | No death | no significant effect | – | – |
| O=P(O)(O)c1ccccc1OCCCOc1ccccc1P(=O)(O)O [C-022] | – | No death | no significant effect | – | – |
| O=P(O)(O)/C=C/c1ccccc1 [C-023] | – | No death | no significant effect | – | – |
| O=P(O)(OC(c1ccccc1)C(F)(F)C(F)(F)C(F)(F)F)c1ccccc1 (centres unmarked) [C-028] | increased with the concentration | No death | no significant effect | virtually unchanged | no significant effect |
